Assay results as given in publication PMC6789111, “Crossing the blood-brain-barrier with nanoligand drug carriers self-assembled from a phage display peptide” (Nature Communications, 2019).
Peptide text beside a SMILES is read from it. * marks the point of attachment. 5FAM = O=C1OC2(c3ccc(O)cc3Oc3cc(O)ccc32)c2ccc(C(=O)*)cc21

Tests used:
[1] = Blood count after intravenous injection; format: in vivo, ICR mice; conditions: mouse, in vivo, iv
Text: Supplementary Table 2. Blood count following intravenous injection of FAM-CGY NLCs in free form and complexed with siRNA
Samples WBC RBC HGB HCT MCV MCH MCHC PLT
WBC: white blood cell; RBC: red blood cell count; HGB: haemoglobin; HCT: haematocrit; MCV: mean corpuscular volume; MCH: mean corpuscular haemoglobin; MCHC: mean corpuscular
significance (*p < 0.05). The results are mean ± s.d. (n = 3 animals per group). The experiment was repeated twice with identical results. The siRNA represent BACE-1-specific siRNA. The
final concentration of the peptide conjugate was 10 µM and that of siRNA was 48 nM, based on blood volume calculation equivalent to 6% of the body weight. LPS = lipopolysaccharide.

hCMEC/D3 cells = assay: Competition studies of NLC uptake; format: cell-based, human
Method: The amyloid β1–42 oligomers were prepared using a previous method. BSA was used as control protein competitor. The fluorescence microscopy and FACS were employed to observe and quantify FAM-CGY self-assembly uptake, respectively.

IL-1β = assay: ELISA of IL-1β in hippocampus; format: in vivo, ICR mice; conditions: Ave.

## CC[C@H](C)[C@H](NC(=O)[C@H](CC(N)=O)NC(=O)[C@H](Cc1c[nH]cn1)NC(=O)[C@@H](NC(=O)[C@@H]1CCCN1C(=O)[C@H](CCCNC(=N)N)NC(=O)[C@H](Cc1ccc(O)cc1)NC(=O)CNC(=O)[C@H](CS)NC(=O)c1ccc2c(c1)C(=O)OC21c2ccc(O)cc2Oc2cc(O)ccc21)C(C)C)C(=O)N[C@@H](CCCNC(=N)N)C(=O)NCC(=O)N[C@@H](Cc1c[nH]cn1)C(=O)N[C@@H](Cc1c[nH]c2ccccc12)C(=O)N[C@@H](C)C(=O)N1CCC[C@H]1C(=O)NCC(=O)O [FAM-CGY] (5FAM-CGYRPVHNIRGHWAPG-OH)
[1]
  WBC: 4.32±0.53 (×109)L-1
  effect on blood count: no effect on blood count
hCMEC/D3 cells; 500 nM partially iron saturated human transferrin, 37 °C
  inhibition of NLC uptake by transferrin: ~ 50%
hCMEC/D3 cells; 5 µM NLC + 62.5 nM Tf, Ave. All
  FAM-CGY uptake (% of control): 78.89 % of control
hCMEC/D3 cells; 5 µM NLC + 62.5 nM Tf, Set 2
  FAM-CGY uptake (% of control): 73.26 % of control
hCMEC/D3 cells; 5 µM NLC + 62.5 nM Tf, Set 3
  FAM-CGY uptake (% of control): 81.15 % of control
hCMEC/D3 cells; 5 µM NLC + 62.5 nM transferrin (Tf), 16 h, FACS, Set 1
  FAM-CGY uptake (% of control): 82.27 % of control
hCMEC/D3 cells; 5 µM NLC + 250 nM Tf+20 μg RAGE P, Ave. All
  FAM-CGY uptake (% of control): 33.57 % of control
hCMEC/D3 cells; 5 µM NLC + 250 nM Tf, Ave. All
  FAM-CGY uptake (% of control): 53.82 % of control
hCMEC/D3 cells; 5 µM NLC + 500 nM Tf, Ave. All
  FAM-CGY uptake (% of control): 48.73 % of control
hCMEC/D3 cells; 5 µM NLC + 5 μg RAGE P, Ave. All
  FAM-CGY uptake (% of control): 90.44 % of control
hCMEC/D3 cells; 5 µM NLC + 5 μg RAGE P, Set 2
  FAM-CGY uptake (% of control): 86.26 % of control
hCMEC/D3 cells; 5 µM NLC + 5 μg RAGE P, Set 3
  FAM-CGY uptake (% of control): 92.62 % of control
hCMEC/D3 cells; 5 µM NLC + 5 μg RAGE peptide (RAGE P), Set 1
  FAM-CGY uptake (% of control): 92.46 % of control
hCMEC/D3 cells; 5 µM NLC + 10 μg RAGE P, Ave. All
  FAM-CGY uptake (% of control): 82.03 % of control
hCMEC/D3 cells; 5 µM NLC + 20 μg RAGE P, Ave. All
  FAM-CGY uptake (% of control): 58.83 % of control
hCMEC/D3 cells; 5 µM NLC + 40 μg BSA (irrelevant protein), Set 1
  FAM-CGY uptake (% of control): 108.69 % of control
hCMEC/D3 cells; 5 µM NLC + 40 μg BSA, Ave. All
  FAM-CGY uptake (% of control): 103.56 % of control
hCMEC/D3 cells; 5 µM NLC + 40 μg BSA, Set 2
  FAM-CGY uptake (% of control): 96.26 % of control
hCMEC/D3 cells; 5 µM NLC + 40 μg BSA, Set 3
  FAM-CGY uptake (% of control): 105.73 % of control
hCMEC/D3 cells; simultaneous presence of both
  block of NLC uptake by transferrin plus RAGE peptide ligand: ~ 70%
IL-1β; 4 h after i.v.
  IL-1β in hippocampus (Figure 6g): 21.06
IL-1β; 24 h after i.v. (LPS 24 h)
  IL-1β in hippocampus (Figure 6g): 23.58
IL-1β; 72 h after i.v.
  IL-1β in hippocampus (Figure 6g): 22.65
